{"source": "patent US9050375B2", "about": "“Bi-specific digoxigenin binding antibodies” (priority 2009, dated 2015)", "molecules": {"B1": {"name": "murine DIG-IgG 19-11: hybridoma clone 19-11 derived murine anti-digoxigenin IgG1 kappa; VL Seq. ID. NO. 1, VH Seq. ID. NO. 2 (antibody, listed as Mus musculus, V domains shown)", "VH": "MNFVLSLIFLALILKGVQCEVQLVESGGGLVKPGGSLKLSCAVSGFTFSDYAMSWIRQTPENRLEWVASINIGATYAYYPDSVKGRFTISRDNAKNTLFLQMSSLGSEDTAMYYCARPGSPYEYDKAYYSMAYWGPGTSVTVSS", "VL": "MSSAQFLGLLLLCFQGTRCDVQMTQSTSSLSASLGDRVTISCRASQDIKNYLNWYQQKPGGTVKLLIYYSSTLLSGVPSRFSGRGSGTDFSLTITNLEREDIATYFCQQSITLPPTFGGGTKLEIK", "notes": "hybridoma clone 19-11 derived murine anti-digoxigenin IgG1 kappa; ID; NO"}}, "key": {"[1]": {"experiment": "Excitation and emission spectra of Cy5, Dig-Cy5 and complex", "assay_type": "physicochemical", "text": "To evaluate whether digoxygenation of Cy5 alters its fluorescence features, we compared the excitation and emission spectra of Cy5 and compared it with the spectra of the newly generated Dig-Cy5 and with Dig-Cy5 within a complex with bispecific antibodies. […] We conclude that Dig-Cy5 and -complexes can be applied for antibody-mediated targeting and in vivo imaging."}, "KPL-4 cells": {"test_system": "KPL-4 cells", "experiment": "Cytotox assay (CellTiter-Glo) of transfected siRNAs", "assay_type": "cell-based, human", "conditions": "Dharmafect transfection, 48 hours", "procedure": "To measure the number of living cells the CellTiter-Glo Luminescent Cell Viability Assay (Promega Madison, Wis.) assay was applied according to the protocol supplied by the manufacturer. In this assay the cells are lysed and a luminescent signal proportional to the ATP amount is generated. The ATP amount is directly proportional to the number of living cells. The 96 well plates were then analyzed in a InfiniteF200 luminescence reader (Tecan Austria, Gröding).\nFor the cytotox assays, KPL-4 cells were seeded at a density of 7000 cells per well in 96 well plates. The cells were incubated for 24 hours at 37° C., 5% CO2 and 85% humidity in RPMI with 10% FCS and L-Glutamine. The next day cells were transfected with the indicated amounts of siRNA using the Dharmafect transfection reagent according to the instructions of the manufacturer (Dharmacon). After 48 hours the cells were treated with the CellTiter-Glo-assay reagent according to the manufacturers instructions."}, "[2]": {"test_system": "Eg5 mRNA in HeLa-S3 cells", "experiment": "Eg5 bDNA assay of transfected siRNAs", "assay_type": "cell-based, human", "conditions": "Lipofectamine 2000 transfection, 24 hours", "text": "To evaluate whether additions or alterations of siRNAs by digoxygenin alters its biological activity, we performed in vitro assays in cell culture. For that, we chose to assess the activity of siRNA that inactivates the mRNA of Eg5. The direct effect of Eg5 siRNA activity is down-regulation of its cognate mRNA. This can be quantified by bDNA (branched DNA) assays, which detect the amount of specific mRNAs in cells (Burris et al., 1999, Molecular Endocrinology). To perform these assays, we seeded a defined number of the respective cell type into 96-well plates and allowed them to attach over night. The next day cells were transfected with desired amounts of a certain siRNA or treated with the agent whose effect on the mRNA-level should be analysed. After 24 hours the QuantiGene kit protocol was followed according to the instructions of the manufacturer (Affymetrix) in order to quantify the mRNA levels. Briefly, the cell lysates were transferred to a capture plate in the presence of a gene-specific probe set and then incubated at 53° C. over night. Wells were washed. They were then incubated at 53° C. sequentially with an Amplifier and an alkaline phosphatase-linked label probe with a wash between the incubations. After a final wash, the luminescent alkaline phosphatase substrate dioxitane was added and was incubated for 30 min at 53° C. The luminescence was detected using a InfiniteF200 luminescence reader (Tecan Austria, Gröding). The biological activity of siRNAs that target Eg5 can not only be determined by bDNA analyses, but also by the phenotype that is caused by Eg5 mRNA depletion in growing cells. Eg5 is a motor protein that belongs to the kinesin-like protein family. Eg5, also known as KSP (kinesin spindle protein), is essential for the formation of the bipolar mitotic spindle and is required for the proper separation of the spindle poles. Depletion of Eg5 leads to the formation of characteristic monoaster spindles and activates the spindle checkpoint. This causes a mitotic arrest that ultimately leads to apoptosis (Tao et. al., Molecular and cellular biology. 2007 January; 27(2):689-98) (Tao W. et. al., Cancer Cell. 2005; 8:49-59.) Because of that, inactivation of Eg5 by siRNA mediates in many cases a cytotoxic phenotype to cultured cells. Therefore, the biological activity of Eg5 siRNA can be analyzed by monitoring the number of living cells.\nTable 7 summarizes the results of the bDNA and cytotox assays that we performed to compare the biological activities of transfected siRNAs with that of their transfected digoxygenated counterparts. For the bDNA assays, we seeded HeLa-S3 cells into 96-well plates and allowed them to attach over night. The next day cells were transfected with the indicated amounts of siRNA using the Lipofectamine™ 2000 transfection reagent according to the instructions of the manufacturer (Invitrogen). After 24 hours the QuantiGene kit protocol was followed according to the instructions of the manufacturer (Affymetrix) in order to quantify the mRNA levels of the Eg5 mRNA."}, "Eg5-siRNA-DIG": {"molecular_target": "Eg5-siRNA-DIG", "experiment": "SPR (Biacore) binding to mono-digoxygenated siRNA", "conditions": "25° C.", "experimental": "(§2) For that, binding properties of the recombinant <Dig> derivatives were analyzed by surface plasmon resonance (SPR) technology using a Biacore T100 or Biacore 3000 instrument (GE Healthcare Bio-Sciences AB, Uppsala). […] To perform the binding studies capturing anti-human IgG antibody was immobilized on the surface of a CM5 biosensor chip using amine-coupling chemistry. Flow cells were activated with a 1:1 mixture of 0.1 M N-hydroxysuccinimide and 0.1 M 3-(N,N-dimethylamino)propyl-N-ethylcarbodiimide at a flow rate of 5 μl/min. […] A reference control flow cell was treated in the same way but with vehicle buffers only instead of the capturing antibody. Surfaces were blocked with an injection of 1 M ethanolamine/HCl pH 8.5. […]\n(§3) Anti-mouse IgG antibody was immobilized on the surface of a CM5 biosensor chip in the same fashion as described above. […] The samples to be analyzed were diluted in HBS-P (10 mM HEPES, pH 7.4, 150 mM NaCl, 0.005% Surfactant P20) and injected at a flow rate of 5 μl/min. […] Signals were detected at a rate of one signal per second.\n(§4) The samples to be analyzed were diluted in HBS-P and injected at a flow rate of 5 μl/min. […]"}, "DIG-Myoglobin": {"test_system": "DIG-Myoglobin", "experiment": "SPR binding to mono-digoxygenated protein DIG-myoglobin", "procedure": "(§1) For that, binding properties of the recombinant <Dig> derivatives were analyzed by surface plasmon resonance (SPR) technology using a Biacore T100 or Biacore 3000 instrument (GE Healthcare Bio-Sciences AB, Uppsala). This system is well established for the study of molecule interactions. It allows a continuous real-time monitoring of ligand/analyte bindings and thus the determination of association rate constants (ka), dissociation rate constants (kd), and equilibrium constants (KD) in various assay settings. SPR-technology is based on the measurement of the refractive index close to the surface of a gold coated biosensor chip. Changes in the refractive index indicate mass changes on the surface caused by the interaction of immobilized ligand with analyte injected in solution. If molecules bind to immobilized ligand on the surface the mass increases, in case of dissociation the mass decreases. To perform the binding studies capturing anti-human IgG antibody was immobilized on the surface of a CM5 biosensor chip using amine-coupling chemistry. Flow cells were activated with a 1:1 mixture of 0.1 M N-hydroxysuccinimide and 0.1 M 3-(N,N-dimethylamino)propyl-N-ethylcarbodiimide at a flow rate of 5 μl/min. […] A reference control flow cell was treated in the same way but with vehicle buffers only instead of the capturing antibody. Surfaces were blocked with an injection of 1 M ethanolamine/HCl pH 8.5. To compare the binding of the humanized protein variants with that of the murine <Dig> IgG from the original hybridoma 19-11, capturing anti-mouse IgG antibody was immobilized on the surface of a CM5 biosensor chip in the same fashion as described above for the anti-human IgG antibody. To evaluate the functionality of the recombinant <Dig> derivatives, binding of the recombinant hu<Dig> modules, incl. (i) humanized IgG, (ii) fusion proteins harboring hu<Dig> scFv or (iii) disulfide-stabilized scFvs was assayed with different digoxygenated antigens The resulting binding affinities were compared to the binding of the murine ‘wildtype’ DIG-IgG from which the recombinant humanized modules were derived.\nAnother SPR study was performed in which the binding affinity of <DIG>-hu2, IGF1R-DIG and <DIG> M-19-11 was compared in terms of binding to the mono-digoxygenated protein DIG-myoglobin."}, "Eg5-siRNA-(2×)DIG": {"molecular_target": "Eg5-siRNA-(2×)DIG", "experiment": "SPR (Biacore) binding to bi-digoxygenated siRNA", "conditions": "25° C., read-out: KD, binding of siRNA-(2x)DIG", "experimental": "as §2, §3, §4"}, "DIG-siRNA2349": {"molecular_target": "DIG-siRNA2349", "experiment": "SPR binding to DIG-siRNA2349", "conditions": "analyte DIG-siRNA2349; replicate lines; listed as <DIG>M-19-11", "procedure": "as §1, with “derived. […]” for “derived.”"}, "[3]": {"conditions": "analyte DIG-Myoglobin, replicate lines, listed as <DIG>M-19-11"}}, "note": "Where “and” joins values, the source holds several entries; their conditions need not be identical. Equal values may be shown once. {Dig} = digoxigenin coupled through a C6 amino linker; {Cy5} = Cy5 fluorescent dye label; d = 2'-deoxy (DNA); m = 2'-O-methyl; r = 2'-OH (RNA)"}
{"molecule": "Cy5 [reference compound]", "values": [{"measurement": "Emission wavelength (max.)", "setting": "[1]", "result": "at 670 nm"}, {"measurement": "Excitation wavelength", "setting": "[1]", "result": "575-605 nm"}]}
{"molecule": "Dig-Eg5 siRNA: mono-digoxygenated Eg5 siRNA, Seq. ID NO. 25/32 (chain 1 CUGAAGACCUGAAGACAAUUU; chain 2 AUUGUCUUCAGGUCUUCAGUU; chain 1: 2'-O-methyl at CU, RNA at AG, 3' {Dig}, backbone not given here; chain 2: RNA, backbone not given here; further chemistry not fully specified)", "values": [{"measurement": "IC50", "setting": "KPL-4 cells", "result": 4, "unit": "nM"}, {"measurement": "IC50", "setting": "[2]", "result": 0.035, "unit": "nM"}]}
{"molecule": "Dig-Eg5-Cy5 siRNA: digoxygenated Cy5-labeled Eg5 siRNA, Seq. ID NO. 27/34 (chain 1 CUGAAGACCUGAAGACAAUUU; chain 2 AUUGUCUUCAGGUCUUCAGUU; chain 1: RNA, 5' {Cy5}, 3' {Dig}, backbone not given here; chain 2: RNA, backbone not given here)", "values": [{"measurement": "IC50", "setting": "KPL-4 cells", "result": 215, "unit": "nM"}, {"measurement": "IC50", "setting": "[2]", "result": 0.013, "unit": "nM"}]}
{"molecule": "Dig-Luciferase siRNA: digoxygenated luciferase siRNA, Seq. ID NO. 23/30 (chain 1 CUUACGCUGAGUACUUCGATT; chain 2 UCGAAGUACUCAGCGUAAGTT; chain 1: DNA at T, 2'-O-methyl at CU, RNA at AG, 3' {Dig}, backbone not given here; chain 2: sugars from the 5' end rrrrrrmrrrmrrrrmrrrdd, backbone not given here; further chemistry not fully specified)", "values": [{"measurement": "IC50", "setting": "[2]", "result": "> 100", "unit": "nM"}]}
{"molecule": "Eg5 siRNA: siRNA targeting Eg5, Seq. ID NO. 24/31 (chain 1 CUGAAGACCUGAAGACAAUUU; chain 2 AUUGUCUUCAGGUCUUCAGUU; chain 1: sugars from the 5' end r18 m3, backbone not given here; chain 2: RNA, backbone not given here)", "values": [{"measurement": "IC50", "setting": "KPL-4 cells", "result": 28, "unit": "nM"}, {"measurement": "IC50", "setting": "[2]", "result": 0.016, "unit": "nM"}]}
{"molecule": "Luciferase siRNA: control siRNA, Seq. ID NO. 22/29 (chain 1 CUUACGCUGAGUACUUCGATT; chain 2 UCGAAGUACUCAGCGUAAGTT; chain 1: DNA at T, 2'-O-methyl at CU, RNA at AG, backbone not given here; chain 2: sugars from the 5' end rrrrrrmrrrmrrrrmrrrdd, backbone not given here) [reference compound]", "values": [{"measurement": "IC50", "setting": "[2]", "result": "> 100", "unit": "nM"}]}
{"molecule": "B1", "values": [{"measurement": "Kd", "setting": "Eg5-siRNA-DIG", "result": 0.269, "unit": "nM"}, {"measurement": "affinity to DIG-Myo compared with <DIG>-hu2 and disulfide-stabilized <DIG> scFv", "setting": "DIG-Myoglobin; SPR", "result": "about a hundred fold better"}, {"measurement": "ka", "setting": "DIG-Myoglobin; [3]", "result": "1.75e+06 M⁻¹ s⁻¹ and 2.28e+06 M⁻¹ s⁻¹"}, {"measurement": "kd", "setting": "DIG-Myoglobin; [3]", "result": "0.000676 s⁻¹ and 0.000675 s⁻¹"}, {"measurement": "Kd", "setting": "Eg5-siRNA-(2×)DIG", "result": 0.017, "unit": "nM"}, {"measurement": "Kd", "setting": "DIG-siRNA2349", "result": "0.276 nM and 0.371 nM"}, {"measurement": "ka", "setting": "DIG-siRNA2349", "result": "3.27e+06 M⁻¹ s⁻¹ and 2.26e+06 M⁻¹ s⁻¹"}, {"measurement": "kd", "setting": "DIG-siRNA2349", "result": "0.000903 s⁻¹ and 0.000838 s⁻¹"}]}
